Test systems include PC-3 prostate; HCT-116 colon; RXF 393 renal; OVCAR-8 ovarian; SN12C renal; SW-620 colon; UACC-257 melanoma; SK-MEL-2 melanoma; DU-145 prostate; OVCAR-4 ovarian.
What all share (experiment): DTP human tumour cell line panel, 48 h

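Each compound was tested at five concentrations against cells in 96-well plates for 48 hours. At the GI50, growth is halved. TGI: total growth inhibition.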

Usually TGI stands for the concentration at which net growth stops. A higher TGI goes with less potent growth arrest. As usually defined, the GI50 is the concentration that inhibits growth by half.

Consider `S=C(/N=c1\sc(Nc2ccc(Cl)cc2)nc2sc3c(c12)CCN(N1CCc2c(sc4nc(Nc5ccc(Cl)cc5)s/c(=N\C(=S)Nc5ccc(Cl)cc5)c24)C1)C3)Nc1ccc(Cl)cc1`, for which the total growth inhibition concentration (TGI) with PC-3 prostate is 87.9 µM; in the experiment with HCT-116 colon, 31.7 µM; in the experiment with RXF 393 renal it was 36.7 µM; in the experiment on OVCAR-8 ovarian it was > 100 µM; in the experiment on SN12C renal it was 38.5 µM; in the experiment with SW-620 colon, > 100 µM. Also, the figures for the TGI in the experiment on UACC-257 melanoma, in the experiment on SK-MEL-2 melanoma and in the experiment with DU-145 prostate were > 100 µM, 52.2 µM and 64.6 µM, respectively.
Turning to `Cc1cc2c([N+](=O)[O-])cc3c(c2o1)C(=O)C=CC3=O`, the TGI was 30.7 µM in the experiment with PC-3 prostate; 30.2 µM with OVCAR-4 ovarian; 10.5 µM in the experiment on HCT-116 colon; 3.54 µM in the experiment on RXF 393 renal; > 55.7 µM in the experiment on OVCAR-8 ovarian; 12.2 µM in the experiment on SN12C renal. For the same compound, the results for the total growth inhibition concentration (TGI) with UACC-257 melanoma, with SK-MEL-2 melanoma and with DU-145 prostate were 7.23 µM, 35.3 µM and > 52.3 µM, respectively.
As for `Cc1cc(-c2nc3ccccc3s2)ccc1NC(=O)[C@@H](N)CCCCN`, the TGI with PC-3 prostate came out at 30.1 µM; with OVCAR-4 ovarian, 21.3 µM; with HCT-116 colon it was 19.9 µM; in the experiment on RXF 393 renal it was 16.5 µM; with OVCAR-8 ovarian, 17.1 µM; with SN12C renal, 32.9 µM. Further, the TGI with SW-620 colon came to 25.3 µM; with UACC-257 melanoma, 37.8 µM; in the experiment with SK-MEL-2 melanoma, 30 µM; in the experiment with DU-145 prostate it was 25.2 µM.
With `COC(C)(C)[C@@H](O)[C@H]1C[C@H](C)[C@@]2(CC[C@]3(C)[C@@H]2CC[C@@H]2[C@@]4(C)CC[C@@H](OC(C)=O)C(C)(C)[C@@H]4C[C@@H](OC4OC(COC(C)=O)C(O)C(O)C4O)[C@]23C)O1` (some centres undefined), the TGI was found to be 8.1 µM in the experiment on PC-3 prostate; 14.4 µM with OVCAR-4 ovarian; 11.5 µM in the experiment on HCT-116 colon; 11.8 µM in the experiment with RXF 393 renal; 18.7 µM in the experiment on OVCAR-8 ovarian; 19.4 µM with SN12C renal. For the same compound, the TGI with SW-620 colon stood at 20.2 µM; with UACC-257 melanoma, 20.9 µM; in the experiment with SK-MEL-2 melanoma, 19.7 µM; with DU-145 prostate, 15.7 µM.
Consider `COc1cc2cc(Oc3ccc(NC(=O)c4cc(C(F)(F)F)cc(C(F)(F)F)c4)cc3)c(C)nc2cc1OC`, for which the GI50 in the experiment with PC-3 prostate is 1660 nM; in the experiment with OVCAR-4 ovarian, 4.53 µM; with HCT-116 colon, 1560 nM; in the experiment on RXF 393 renal, 2930 nM; in the experiment on SN12C renal it was 3.49 µM; in the experiment with SW-620 colon it was 4.35 µM. Further, the GI50 in the experiment on UACC-257 melanoma is 4.07 µM; in the experiment with SK-MEL-2 melanoma, 15.8 µM; with DU-145 prostate, 4.78 µM. Moreover, the TGI in the experiment with PC-3 prostate, in the experiment with OVCAR-4 ovarian, in the experiment with HCT-116 colon, in the experiment on RXF 393 renal, with SN12C renal and in the experiment on SW-620 colon was > 50 µM each time. Also, the TGI in the experiment with UACC-257 melanoma, in the experiment on SK-MEL-2 melanoma and with DU-145 prostate was > 50 µM each time.
Regarding `CC(C)=CCC/C(C)=C/COC(C)(C)C1=CCC(C)CC1` (centres undefined) (tested in a mixture with another compound), the TGI in the experiment with PC-3 prostate, with OVCAR-4 ovarian, in the experiment with HCT-116 colon, in the experiment with RXF 393 renal, in the experiment with OVCAR-8 ovarian and with SN12C renal was > 100 µM in each case. Moreover, the TGI with SW-620 colon, in the experiment on UACC-257 melanoma and with DU-145 prostate was > 100 µM each time.
For `COC(=O)CN1c2nc(C#N)c(C#N)nc2N(CC(=O)OC)c2nc(C#N)c(C#N)nc21`, the TGI in the experiment with PC-3 prostate was 18.4 µM; in the experiment on OVCAR-4 ovarian, 17.3 µM; in the experiment with HCT-116 colon, 3.77 µM; with RXF 393 renal, 7.09 µM; in the experiment with OVCAR-8 ovarian it was > 22.3 µM; in the experiment on SN12C renal, > 100 µM. Moreover, the TGI was > 25.9 µM in the experiment on SW-620 colon, > 100 µM in the experiment with UACC-257 melanoma, > 100 µM with SK-MEL-2 melanoma and 18.3 µM in the experiment on DU-145 prostate.
In the case of `Clc1ccc(CSCCc2ccncc2)cc1Cl`, the TGI in the experiment on PC-3 prostate was 45.4 µM; in the experiment with OVCAR-4 ovarian, 98.7 µM; in the experiment with HCT-116 colon it was 31.5 µM; with RXF 393 renal, 61.8 µM; in the experiment on OVCAR-8 ovarian it was 46 µM; with SN12C renal it was 42.2 µM. Moreover, the TGI in the experiment with SW-620 colon was 46.6 µM; in the experiment on UACC-257 melanoma, > 100 µM; in the experiment on SK-MEL-2 melanoma, 30.8 µM; in the experiment with DU-145 prostate, > 100 µM.
With `COc1nc2ncc([C@@H](OC(C)=O)[C@@H](COC(C)=O)OC(C)=O)nc2c(=O)[nH]1`, the TGI in the experiment with PC-3 prostate, in the experiment with OVCAR-4 ovarian, in the experiment on HCT-116 colon, with RXF 393 renal, in the experiment with OVCAR-8 ovarian and in the experiment with SN12C renal was > 100 µM in each case. Also, the TGI in the experiment with SW-620 colon, with UACC-257 melanoma, in the experiment on SK-MEL-2 melanoma and with DU-145 prostate was > 100 µM each time.
Take `CNc1ncnc2c1cnn2COCC(O)CO` (centres undefined): the TGI in the experiment with PC-3 prostate, in the experiment on OVCAR-4 ovarian, in the experiment with HCT-116 colon, with RXF 393 renal, in the experiment with OVCAR-8 ovarian and in the experiment on SN12C renal was > 100 µM throughout. In addition, the TGI with SW-620 colon, in the experiment on UACC-257 melanoma, in the experiment on SK-MEL-2 melanoma and in the experiment with DU-145 prostate was > 100 µM each time.
Take `O=[N+]([O-])c1ccc(/C=C/c2cc(-c3ccccc3)nc3ccc4ccccc4c23)cc1`: the TGI in the experiment with PC-3 prostate, with OVCAR-4 ovarian, in the experiment with HCT-116 colon, in the experiment with RXF 393 renal, in the experiment on OVCAR-8 ovarian and in the experiment with SN12C renal was > 100 µM in each case. The concentration for total growth inhibition (TGI) in the experiment with SW-620 colon, with UACC-257 melanoma and in the experiment on DU-145 prostate was > 100 µM in each case.
Turning to `CC(=O)c1cccn1/C=C(\OC(=O)OC(C)(C)C)c1ccc[nH]1`, the TGI with PC-3 prostate, with OVCAR-4 ovarian, in the experiment on HCT-116 colon, in the experiment on RXF 393 renal, in the experiment on OVCAR-8 ovarian and in the experiment on SN12C renal was > 100 µM throughout. For the same compound, the TGI with SW-620 colon, in the experiment with UACC-257 melanoma, in the experiment on SK-MEL-2 melanoma and in the experiment with DU-145 prostate was > 100 µM each time.

These data come from PubChem BioAssay (NCI).
